Measured values published in ChEMBL document CHEMBL1914410, “Discovery of a series of potent and selective human H4 antagonists using ligand efficiency and libraries to explore structure-activity relationship (SAR)” (Bioorg Med Chem Lett, 2011).

How the values were obtained:
[1] = biological target: T1, Histamine H4 receptor (Homo sapiens, UniProt Q9H3N8); test: Displacement of [3H]histamine from human histamine H4 receptor expressed in CHO cells after 90 mins by scintillation counting technique; format: cell-based
[2] = biological target: T1, Histamine H4 receptor; test: Antagonist activity at human histamine H4 receptor at 15 uM by functional assay; parameters: scale not given: the % may be the effect or the level left
[3] = Distribution coefficient, log D of the compound at pH 7.4; format: physicochemical; conditions: octanol/water
[4] = biological target: T2, Histamine H3 receptor (Homo sapiens, UniProt Q9Y5N1); test: Antagonist activity at histamine H3 receptor; format: functional
[5] = biological target: T1, Histamine H4 receptor; test: Antagonist activity at human histamine H4 receptor by functional assay
[6] = system: Liver microsomes; test: Intrinsic clearance in rat liver microsomes; format: ADME, Microsome
[7] = biological target: T2, Histamine H3 receptor; test: Binding affinity to human histamine H3 receptor
[8] = Metabolic stability in human liver microsomes; format: ADME, Microsome; conditions: read-out: Stability
[9] = biological target: Histamine H1 receptor (Homo sapiens, UniProt P35367); test: Antagonist activity at histamine H1 receptor; format: functional
[10] = Metabolic stability in rat liver microsomes; format: ADME, Microsome; conditions: read-out: Stability
[11] = biological target: T2, Histamine H3 receptor; test: Binding affinity to histamine H3 receptor
[12] = biological target: Histamine H2 receptor (Homo sapiens, UniProt P25021); test: Antagonist activity at histamine H2 receptor; format: functional
Sequence of Histamine H2 receptor (P25021 whole entry): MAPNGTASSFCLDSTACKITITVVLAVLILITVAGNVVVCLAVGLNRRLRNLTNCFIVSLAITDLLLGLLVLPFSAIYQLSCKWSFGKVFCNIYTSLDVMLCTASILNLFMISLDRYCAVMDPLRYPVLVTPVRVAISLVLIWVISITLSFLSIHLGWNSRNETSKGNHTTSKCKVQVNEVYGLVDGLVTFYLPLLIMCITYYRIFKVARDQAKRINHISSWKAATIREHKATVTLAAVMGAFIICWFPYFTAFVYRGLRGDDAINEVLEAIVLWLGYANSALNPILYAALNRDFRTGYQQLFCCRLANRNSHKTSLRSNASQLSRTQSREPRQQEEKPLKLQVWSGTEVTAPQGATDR

T1 sequence (Q9H3N8 whole entry): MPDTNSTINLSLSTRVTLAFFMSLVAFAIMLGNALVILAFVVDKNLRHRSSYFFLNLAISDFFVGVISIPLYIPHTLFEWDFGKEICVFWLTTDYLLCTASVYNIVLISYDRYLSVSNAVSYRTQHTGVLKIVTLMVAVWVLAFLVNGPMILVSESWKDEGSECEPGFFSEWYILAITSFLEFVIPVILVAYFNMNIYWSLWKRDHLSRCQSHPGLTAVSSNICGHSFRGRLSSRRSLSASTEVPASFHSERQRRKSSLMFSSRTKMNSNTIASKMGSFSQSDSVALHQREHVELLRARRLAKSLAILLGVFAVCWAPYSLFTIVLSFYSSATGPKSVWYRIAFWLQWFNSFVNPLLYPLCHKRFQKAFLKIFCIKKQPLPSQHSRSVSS
T2 sequence (Q9Y5N1 whole entry): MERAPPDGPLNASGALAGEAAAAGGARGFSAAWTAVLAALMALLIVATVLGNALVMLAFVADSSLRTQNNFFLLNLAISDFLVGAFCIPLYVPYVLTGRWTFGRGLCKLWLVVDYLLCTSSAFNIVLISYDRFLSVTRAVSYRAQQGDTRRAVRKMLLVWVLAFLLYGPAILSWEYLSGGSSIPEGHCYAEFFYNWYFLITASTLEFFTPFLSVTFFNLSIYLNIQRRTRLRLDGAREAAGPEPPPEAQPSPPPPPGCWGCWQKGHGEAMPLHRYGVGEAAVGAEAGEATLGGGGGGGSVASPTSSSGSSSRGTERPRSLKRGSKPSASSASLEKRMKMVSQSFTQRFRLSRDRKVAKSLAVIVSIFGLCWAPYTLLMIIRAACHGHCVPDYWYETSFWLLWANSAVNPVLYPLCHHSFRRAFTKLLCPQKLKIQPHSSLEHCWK
Sequence of Histamine H1 receptor (P35367 whole entry): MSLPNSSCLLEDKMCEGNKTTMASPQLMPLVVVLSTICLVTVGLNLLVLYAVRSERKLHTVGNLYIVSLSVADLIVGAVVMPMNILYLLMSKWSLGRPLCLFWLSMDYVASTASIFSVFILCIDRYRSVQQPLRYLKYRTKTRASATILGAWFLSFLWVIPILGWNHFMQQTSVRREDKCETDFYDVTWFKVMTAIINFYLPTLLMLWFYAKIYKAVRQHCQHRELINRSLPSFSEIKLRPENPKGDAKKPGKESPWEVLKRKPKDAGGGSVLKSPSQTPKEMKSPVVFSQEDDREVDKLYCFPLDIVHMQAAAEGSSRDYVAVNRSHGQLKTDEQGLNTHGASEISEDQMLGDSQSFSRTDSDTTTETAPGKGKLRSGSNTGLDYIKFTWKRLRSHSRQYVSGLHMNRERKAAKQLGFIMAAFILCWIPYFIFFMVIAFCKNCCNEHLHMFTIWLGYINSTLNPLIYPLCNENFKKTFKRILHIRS

CN1CCN(c2cc(C(=O)NCc3cccc(C(F)(F)F)c3)ncn2)CC1
Ki [1]: 34900 nM | Activity [2]: 57%

CC(C)(C)CCNc1cc(N2CCN(C3CCCCC3)CC2)ncn1
Ki [1]: 601 nM | logD [3]: 3.84

CC(C)(C)CCNc1cc(NC2CCN(Cc3ccc(CO)o3)C2)ncn1 (stereo not given)
Ki [1]: 2110 nM | Activity [2]: 73%

CN1CCN(c2cc(NCc3ccccc3)ncn2)CC1
Ki [1]: 207 nM

Cc1ccc(C#N)c(N2CC3CN(C)CC3C2)n1 (stereo not given)
Ki [1]: 930 nM | logD [3]: -0.86

CC(C)(C)CCNc1cc(N[C@@H]2CCNC2)ncn1
Ki [4]: 13600 nM

CN1CCN(C(=O)c2nc3cc(Cl)ccc3[nH]2)CC1
Ki [1]: 47.7 nM | Ki [5]: 39.6 nM

COc1ccccc1Cn1ccc(NCCc2cnc[nH]2)nc1=O
Ki [1]: 1600 nM | Activity [2]: 65% | Ki [5]: > 2000 nM

CN1CC[C@H](Nc2cc(NCCC(C)(C)C)ncn2)C1
Ki [1]: 593 nM

CN1CCN(c2cc(NC3Cc4ccccc4C3)ncn2)CC1
Ki [1]: 212 nM

CN1CCCN(c2cc(NCC(C)(C)C)ncn2)CC1
logD [3]: 0.96

CN(C)CCNc1cc(NCC2CC2)ncn1
CL [6]: 143 µL/min

CC(C)(C)CCNc1cc(N[C@H]2CCN(Cc3cccc(F)c3O)C2)ncn1
Ki ([1]; cho): 20000 nM

CN1CCN(c2cc(NCC(C)(C)C)ncn2)CC1
logD [3]: 1.75 | Ki [7]: 825 nM

CN1CCN(c2cc(NCCC(C)(C)C)ncn2)CC1
microsomal CLint [8]: 16 µL/min/mg | Ki [9]: > 10000 nM | microsomal CLint [10]: 147 µL/min/mg | logD [3]: 2.6 | Ki [11]: 646 nM | Ki [12]: 3560 nM | Ki [5]: 37 nM

COc1cccc(C(O)(COc2ccccc2C)CN2CCN(C)CC2)c1 (stereo not given)
Ki [1]: 3240 nM | Activity [2]: 60% | Ki [4]: 2500 nM | Ki [5]: > 2000 nM

CN1CCN(c2cnc3ccccc3n2)CC1
Ki [1]: 1060 nM | logD [3]: 1.76

CN(C)[C@@H]1CCN(c2cc(NCC(C)(C)C)ncn2)C1
logD [3]: 1.09 | Ki [7]: 54 nM

CN1CCN(c2cc(N3[C@@H]4CCC[C@@H]3C4)ncn2)CC1
Ki [1]: 860 nM

CC(C)(C)CCNc1cc(N2CCNCC2)ncn1
logD [3]: 1.4

CC(C)(C)CCNc1cc(N[C@H]2CCNC2)ncn1
Ki [9]: > 40000 nM | logD [3]: 0.6 | Ki [12]: 8820 nM | Ki [4]: 8220 nM | Ki [5]: 572 nM

COCc1ccc(CN2CC[C@H](Nc3cc(NCCC(C)(C)C)ncn3)C2)o1
Ki ([1]; cho): 20000 nM
